# Measured values taken from ChEMBL document CHEMBL3885861, “Open TG-GATES”.
# Species on record: Rattus norvegicus
# Assay: Open TG-GATES - Regimen: Daily Repeat
# Type: toxicity, organism-based, Sprague-Dawley
# Design: regimen Daily Repeat, gender Male, age 6 weeks
# Details: in vivo, po, route gavage; for KIDNEY_L / KIDNEY_R / KIDNEY_TOTAL: tissue Kidney; for ALP / ALT / AST / BUN / CRE / Ca / Cl / DBIL / GLC / IP / K / LDH / Na / RALB / TBIL / TC / TG / TP / gamma-GTP / PL: tissue Plasma
# [1] = 200 mg/kg, 72 h, tissue Blood, dose level Middle, time 3 day
# [2] = 200 mg/kg, 72 h, dose level Middle, time 3 day
# [3] = 200 mg/kg, […], dose level Middle, time 7 day
# [4] = 200 mg/kg, […], dose level Middle, time 14 day
# [5] = 200 mg/kg, […], dose level Middle, time 28 day
# [6] = 200 mg/kg, […], tissue Blood, dose level Middle, time 7 day
# [7] = 200 mg/kg, […], tissue Blood, dose level Middle, time 14 day
# [8] = 200 mg/kg, […], tissue Blood, dose level Middle, time 28 day
# [9] = 600 mg/kg, 72 h, dose level High, time 3 day
# [10] = 600 mg/kg, 72 h, tissue Blood, dose level High, time 3 day
# [11] = 600 mg/kg, […], dose level High, time 7 day
# [12] = 600 mg/kg, […], dose level High, time 14 day
# [13] = 600 mg/kg, […], dose level High, time 28 day
# [14] = 600 mg/kg, […], tissue Blood, dose level High, time 7 day
# [15] = 600 mg/kg, […], tissue Blood, dose level High, time 14 day
# [16] = 600 mg/kg, […], tissue Blood, dose level High, time 28 day
structure (smiles),measurement,setting,value
CC(=O)Nc1nnc(S(N)(=O)=O)s1 [ACETAZOLAMIDE],APTT,[1],19.2 s
same,Bas,[1],0%
same,Eos,[1],1.2%
same,Fbg,[1],313.4 mg/dL
same,Ht,[1],39.9%
same,MCH,[1],21.3 pg
same,MCHC,[1],34.1%
same,MCV,[1],62.6 fL
same,Mono,[1],3%
same,Neu,[1],18.6%
same,PT,[1],16.5 s
same,RBC,[1],637.6 x10_4/ul
same,Ret,[1],5.3%
same,KIDNEY_L,[2],1.1 g
same,KIDNEY_R,[2],1 g
same,KIDNEY_TOTAL,[2],2.1 g
same,ALP,[2],1836.6 IU/L
same,ALT,[2],45.2 IU/L
same,AST,[2],64.2 IU/L
same,BUN,[2],20 mg/dL
same,CRE,[2],0.2 mg/dL
same,Ca,[2],10.8 mg/dL
same,Cl,[2],109.6 meq/L
same,DBIL,[2],0 mg/dL
same,GLC,[2],175.2 mg/dL
same,IP,[2],7.5 mg/dL
same,K,[2],4.1 meq/L
same,LDH,[2],187.8 IU/L
same,Na,[2],142.4 meq/L
same,RALB,[2],3 g/dL
same,TBIL,[2],0.008 mg/dL
same,TC,[2],83.2 mg/dL
same,TG,[2],81.6 mg/dL
same,TP,[2],5.3 g/dL
same,gamma-GTP,[2],1.4 IU/L
same,TERMINAL_BW,[3],243.9 g
same,TERMINAL_BW,[4],281.3 g
same,TERMINAL_BW,[5],340.5 g
same,APTT,[6],20 s
same,Bas,[6],0%
same,Eos,[6],1%
same,Fbg,[6],338 mg/dL
same,Ht,[6],39%
same,MCH,[6],21.1 pg
same,MCHC,[6],35.4%
same,MCV,[6],59.7 fL
same,Mono,[6],2.6%
same,RBC,[6],653.4 x10_4/ul
same,Ret,[6],5.9%
same,APTT,[7],22 s
same,Bas,[7],0%
same,Eos,[7],0.6%
same,Fbg,[7],302.4 mg/dL
same,Ht,[7],40.2%
same,MCH,[7],20.4 pg
same,MCHC,[7],35.2%
same,MCV,[7],57.9 fL
same,Mono,[7],1.4%
same,Neu,[7],17.6%
same,RBC,[7],696.2 x10_4/ul
same,Ret,[7],4.5%
same,APTT,[8],24.7 s
same,Bas,[8],0%
same,Eos,[8],0.8%
same,Fbg,[8],312.2 mg/dL
same,Ht,[8],42%
same,MCH,[8],19.3 pg
same,MCHC,[8],34.7%
same,Mono,[8],1.8%
same,PT,[8],16.5 s
same,RBC,[8],757.6 x10_4/ul
same,Ret,[8],3%
same,KIDNEY_L,[3],1.1 g
same,KIDNEY_R,[3],1.1 g
same,KIDNEY_TOTAL,[3],2.2 g
same,KIDNEY_L,[4],1.2 g
same,KIDNEY_R,[4],1.2 g
same,KIDNEY_TOTAL,[4],2.5 g
same,KIDNEY_L,[5],1.4 g
same,KIDNEY_R,[5],1.4 g
same,KIDNEY_TOTAL,[5],2.8 g
same,ALP,[3],1704.2 IU/L
same,ALT,[3],44 IU/L
same,AST,[3],67.4 IU/L
same,BUN,[3],20.4 mg/dL
same,CRE,[3],0.2 mg/dL
same,Ca,[3],10.7 mg/dL
same,Cl,[3],110.8 meq/L
same,DBIL,[3],0 mg/dL
same,GLC,[3],186.8 mg/dL
same,IP,[3],6.7 mg/dL
same,K,[3],4.2 meq/L
same,LDH,[3],179 IU/L
same,Na,[3],143.6 meq/L
same,PL,[3],140.2 mg/dL
same,RALB,[3],2.9 g/dL
same,TBIL,[3],0 mg/dL
same,TC,[3],69.8 mg/dL
same,TG,[3],133.8 mg/dL
same,TP,[3],5.1 g/dL
same,gamma-GTP,[3],1.4 IU/L
same,ALP,[4],1326.4 IU/L
same,ALT,[4],42 IU/L
same,AST,[4],65.6 IU/L
same,BUN,[4],19 mg/dL
same,CRE,[4],0.2 mg/dL
same,Ca,[4],10.6 mg/dL
same,Cl,[4],107.4 meq/L
same,DBIL,[4],0 mg/dL
same,GLC,[4],184.4 mg/dL
same,IP,[4],6.7 mg/dL
same,K,[4],3.7 meq/L
same,LDH,[4],139 IU/L
same,Na,[4],143.8 meq/L
same,PL,[4],142.4 mg/dL
same,RALB,[4],3.1 g/dL
same,TBIL,[4],0.002 mg/dL
same,TC,[4],69.8 mg/dL
same,TP,[4],5.6 g/dL
same,gamma-GTP,[4],2 IU/L
same,ALP,[5],1449.8 IU/L
same,ALT,[5],44.2 IU/L
same,AST,[5],69 IU/L
same,BUN,[5],17.2 mg/dL
same,CRE,[5],0.2 mg/dL
same,Cl,[5],108.2 meq/L
same,DBIL,[5],0 mg/dL
same,GLC,[5],179.6 mg/dL
same,IP,[5],5.4 mg/dL
same,K,[5],3.8 meq/L
same,LDH,[5],136.8 IU/L
same,Na,[5],141.8 meq/L
same,PL,[5],159 mg/dL
same,RALB,[5],3.2 g/dL
same,TBIL,[5],0.002 mg/dL
same,TC,[5],81.4 mg/dL
same,TG,[5],136.4 mg/dL
same,TP,[5],6 g/dL
same,gamma-GTP,[5],2.4 IU/L
same,TERMINAL_BW,[9],195.4 g
same,APTT,[10],18.7 s
same,Bas,[10],0%
same,Eos,[10],1%
same,Fbg,[10],285 mg/dL
same,Ht,[10],41.9%
same,Lym,[10],86%
same,MCH,[10],20.5 pg
same,MCHC,[10],34.2%
same,MCV,[10],59.9 fL
same,Mono,[10],2.4%
same,Neu,[10],9.6%
same,PT,[10],17.7 s
same,RBC,[10],699.4 x10_4/ul
same,Ret,[10],3.9%
same,KIDNEY_L,[9],0.9 g
same,KIDNEY_R,[9],0.9 g
same,KIDNEY_TOTAL,[9],1.8 g
same,ALP,[9],1356 IU/L
same,ALT,[9],43 IU/L
same,AST,[9],57.8 IU/L
same,BUN,[9],22.6 mg/dL
same,CRE,[9],0.2 mg/dL
same,Ca,[9],10.8 mg/dL
same,Cl,[9],116 meq/L
same,DBIL,[9],0 mg/dL
same,GLC,[9],186.6 mg/dL
same,IP,[9],7.9 mg/dL
same,K,[9],4.1 meq/L
same,LDH,[9],211.2 IU/L
same,Na,[9],142.6 meq/L
same,PL,[9],151.8 mg/dL
same,RALB,[9],3 g/dL
same,TBIL,[9],0.006 mg/dL
same,TC,[9],84 mg/dL
same,TG,[9],90.6 mg/dL
same,TP,[9],5.4 g/dL
same,gamma-GTP,[9],1 IU/L
same,TERMINAL_BW,[11],226.8 g
same,TERMINAL_BW,[12],263.9 g
same,TERMINAL_BW,[13],330.6 g
same,APTT,[14],19.2 s
same,Bas,[14],0%
same,Eos,[14],1%
same,Fbg,[14],314.4 mg/dL
same,Ht,[14],39.9%
same,MCH,[14],21 pg
same,MCHC,[14],34.5%
same,MCV,[14],60.9 fL
same,Mono,[14],2.4%
same,RBC,[14],656.2 x10_4/ul
same,Ret,[14],6%
same,APTT,[15],21.5 s
same,Bas,[15],0%
same,Eos,[15],0.8%
same,Fbg,[15],315.6 mg/dL
same,MCH,[15],20.4 pg
same,MCHC,[15],35.3%
same,MCV,[15],57.8 fL
same,Mono,[15],2.4%
same,Neu,[15],23.6%
same,PT,[15],16.7 s
same,RBC,[15],708 x10_4/ul
same,Ret,[15],5.3%
same,APTT,[16],23 s
same,Bas,[16],0%
same,Eos,[16],1%
same,Fbg,[16],306.4 mg/dL
same,Ht,[16],42.1%
same,MCH,[16],19.4 pg
same,MCHC,[16],34%
same,MCV,[16],57 fL
same,Mono,[16],2.8%
same,PT,[16],16.9 s
same,RBC,[16],739.2 x10_4/ul
same,Ret,[16],3.4%
same,KIDNEY_L,[11],1.1 g
same,KIDNEY_R,[11],1.1 g
same,KIDNEY_TOTAL,[11],2.1 g
same,KIDNEY_L,[12],1.2 g
same,KIDNEY_R,[12],1.3 g
same,KIDNEY_TOTAL,[12],2.5 g
same,KIDNEY_L,[13],1.4 g
same,KIDNEY_R,[13],1.4 g
same,KIDNEY_TOTAL,[13],2.8 g
same,ALP,[11],1613 IU/L
same,ALT,[11],46 IU/L
same,AST,[11],71.6 IU/L
same,BUN,[11],20 mg/dL
same,CRE,[11],0.2 mg/dL
same,Ca,[11],10.9 mg/dL
same,Cl,[11],114.2 meq/L
same,DBIL,[11],0 mg/dL
same,GLC,[11],179.8 mg/dL
same,IP,[11],7.2 mg/dL
same,K,[11],4.2 meq/L
same,LDH,[11],162.8 IU/L
same,Na,[11],144.6 meq/L
same,PL,[11],167.4 mg/dL
same,RALB,[11],3 g/dL
same,TBIL,[11],0 mg/dL
same,TC,[11],84.2 mg/dL
same,TG,[11],124 mg/dL
same,TP,[11],5.4 g/dL
same,gamma-GTP,[11],1.2 IU/L
same,ALP,[12],1257.6 IU/L
same,ALT,[12],40.4 IU/L
same,AST,[12],61.4 IU/L
same,BUN,[12],18.8 mg/dL
same,CRE,[12],0.2 mg/dL
same,Ca,[12],10.5 mg/dL
same,Cl,[12],110.6 meq/L
same,DBIL,[12],0 mg/dL
same,GLC,[12],181.8 mg/dL
same,IP,[12],7 mg/dL
same,K,[12],3.7 meq/L
same,LDH,[12],141.6 IU/L
same,Na,[12],143.4 meq/L
same,PL,[12],152.2 mg/dL
same,RALB,[12],3 g/dL
same,TBIL,[12],0.004 mg/dL
same,TC,[12],76.2 mg/dL
same,TG,[12],130.4 mg/dL
same,TP,[12],5.5 g/dL
same,gamma-GTP,[12],1.8 IU/L
same,ALP,[13],1120.2 IU/L
same,AST,[13],66.4 IU/L
same,BUN,[13],18.4 mg/dL
same,CRE,[13],0.2 mg/dL
same,Ca,[13],10.2 mg/dL
same,Cl,[13],111.2 meq/L
same,DBIL,[13],0 mg/dL
same,GLC,[13],178 mg/dL
same,IP,[13],5.6 mg/dL
same,K,[13],3.8 meq/L
same,LDH,[13],149 IU/L
same,Na,[13],142.6 meq/L
same,PL,[13],136.2 mg/dL
same,RALB,[13],3.2 g/dL
same,TBIL,[13],0.01 mg/dL
same,TC,[13],71.6 mg/dL
same,TG,[13],115.4 mg/dL
same,TP,[13],5.6 g/dL
same,gamma-GTP,[13],2.2 IU/L
